Measured values reported in ChEMBL document CHEMBL6115010, “Targeting glioma with heteroaromatic alkaloids: A review of potential therapeutics” (Bioorg Med Chem, 2025).
≈ marks a conversion by molar mass, not a printed value. Blank lines part the entries; values can stand above or below the compound they belong to.

Assays:
[1] = Cytotoxicity against rat RT-2 cells assessed as reduction in cell growth by measuring lethal concentration incubated for 24 hrs by MTT assay; format: functional; conditions: RT2, read-out: LC50 (the source's name)
[2] = Cytotoxicity against rat RT-2 cells assessed as reduction in cell growth by measuring lethal concentration incubated for 72 hrs by MTT assay; format: functional; conditions: RT2, read-out: LC50 (the source's name)
[3] = system: ECV-304; assay: Cytotoxicity against human ECV-304 cells assessed as reduction in cell growth by measuring lethal concentration incubated for 72 hrs by MTT assay; format: functional; conditions: read-out: LC50 (the source's name)
[4] = system: ECV-304; assay: Cytotoxicity against human ECV-304 cells assessed as reduction in cell growth by measuring lethal concentration incubated for 24 hrs by MTT assay; format: functional; conditions: read-out: LC50 (the source's name)
[5] = system: U-87 MG; assay: Antiproliferative activity against human U-87 MG cells assessed as reduction in cell growth measured for 24 hrs by MTT assay; format: functional, cell-based, U-87MG ATCC
[6] = system: U-251; assay: Antiproliferative activity against human U-251MG cells assessed as reduction in cell growth measured for 24 hrs by MTT assay; format: functional, cell-based; conditions: U-251, 24 h
[7] = Antiproliferative activity against human SWO-38cells assessed as reduction in cell growth measured for 24 hrs by MTT assay; format: functional, cell-based; conditions: SWO-38, 24 h
[8] = system: U-87 MG; assay: Antitumor activity against human U-87 MG cells xenografted in BALB/c nude mouse assessed as reduction in tumor growth at 5 mg/kg, iv administered once daily for 16 days relative to control; format: functional, U-87MG ATCC; set-up: scale not given: the % may be the effect or the level left; conditions: time 16 day
[9] = system: U-251; assay: Antiproliferative activity against human U-251MG cells assessed as reduction in cell viability incubated for 48 hrs by SRB assay; format: functional, cell-based; conditions: U-251, 48 h
[10] = system: SF-268; assay: Antiproliferative activity against human SF-268 cells assessed as inhibition of cell growth by MTT assay; format: functional; conditions: read-out: ED50 (the source's name)
[11] = system: C6; assay: Anticancer activity against rat C6 cells assessed as reduction in cell growth at 10 ug/ml incubated for 24 hrs by MTT assay relative to control; format: functional
[12] = system: C6; assay: Antiproliferative activity against rat C6 cells assessed as reduction in cell growth measured for 96 hrs by WST-1 assay; format: functional, cell-based; conditions: C6, 96 h
[13] = system: C6; assay: Antitumor activity against rat C6 cells implanted in athymic nude mouse assessed as reduction in tumor volume at 300 mg/kg, sc administered once daily for 21 days relative to control; format: functional; set-up: scale not given: the % may be the effect or the level left; conditions: time 21 day
[14] = system: C6; assay: Antitumor activity against rat C6 cells implanted in athymic nude mouse assessed as reduction in tumor volume at 300 mg/kg, IC administered once daily for 21 days relative to control; format: functional; set-up: scale not given: the % may be the effect or the level left; conditions: time 21 day
[15] = Downregulation of HIF-1alpha expression in human U-87 MG cells at 150 uM relative to control; format: functional, U-87MG ATCC
[16] = Downregulation of HIF-1alpha expression in human T98G cells at 150 uM relative to control; format: functional
[17] = system: HUVEC; assay: Antivascular activity against HUVEC cells assessed as inhibition of capillary tube formation at 50 incubated for 6 hrs by microscopy based analysis relative to control; format: functional, Homo sapiens; set-up: scale not given: the % may be the effect or the level left
[18] = system: HUVEC; assay: Antivascular activity against HUVEC cells assessed as inhibition of capillary tube formation at 150 incubated for 6 hrs by microscopy based analysis relative to control; format: functional, Homo sapiens; set-up: scale not given: the % may be the effect or the level left
[19] = system: HUVEC; assay: Antivascular activity against HUVEC cells assessed as inhibition of capillary tube formation at 100 incubated for 6 hrs by microscopy based analysis relative to control; format: functional, Homo sapiens; set-up: scale not given: the % may be the effect or the level left
[20] = Antiproliferative activity against human TMZ-sensitive A-172 cells assessed as reduction in cell growth incubated for 48 hrs by MTT assay; format: functional, cell-based, TMZ-sensitive A-172 cell; conditions: A 172, 48 h
[21] = Antiproliferative activity against human TMZ-resistant A-172 cells assessed as reduction in cell growth incubated for 48 hrs by MTT assay; format: functional, cell-based; conditions: TMZ-resistant A-172 cell
[22] = Antiproliferative activity against human TMZ-sensitive LN-229 cells assessed as reduction in cell growth incubated for 48 hrs by MTT assay; format: functional, cell-based, TMZ-sensitive LN-229 cell; conditions: LN-229, 48 h
[23] = Antiproliferative activity against human TMZ-resistant LN-229 cells assessed as reduction in cell growth incubated for 48 hrs by MTT assay; format: functional, cell-based, TMZ-resistant LN-229 cell; conditions: LN-229, 48 h
[24] = Antiproliferative activity against human TMZ-sensitive U-251MG cells assessed as reduction in cell growth incubated for 48 hrs by MTT assay; format: functional, cell-based, TMZ-sensitive U-251MG cell; conditions: U-251, 48 h
[25] = Antiproliferative activity against human TMZ-resistant U-251MG cell assessed as reduction in cell growth incubated for 48 hrs by MTT assay; format: functional, cell-based; conditions: U-251, 48 h
[26] = Antitumor activity against mouse GL261 cells implanted in C57BL/6 mouse model assessed as increase in tumor growth delay under radiation at 150 mg/kg via oral gavage (reference value: 12.7+/-2.8 days); format: functional
[27] = Antitumor activity against mouse GL261 cells implanted in C57BL/6 mouse model assessed as increase in tumor growth delay without radiation at 150 mg/kg via oral gavage (reference value: 12.7+/-2.8 days); format: functional
[28] = Antitumor activity against mouse GL261 cells implanted in C57BL/6 mouse model assessed as fold reduction in cell proliferation under radiation at 150 mg/kg via oral gavage (reference value: 3.3 fold); format: functional
[29] = system: T98G; assay: Induction of apoptosis in human T98G cells assessed as fold increase in apoptosis at 10 uM under radiation measured after 24 hrs by annexin V and PI staining based flow cytometry analysis (Rvb=3.7); format: functional
[30] = system: U-87 MG; assay: Antiproliferative activity against human U-87 MG cells assessed as reduction in inhibition of cell growth incubated for 72 hrs by MTT assay; format: functional, cell-based, U-87MG ATCC
[31] = system: U-118-MG; assay: Antiproliferative activity against human U-118-MG cells assessed as reduction in inhibition of cell growth incubated for 72 hrs by MTT assay; format: functional, cell-based
[32] = system: LN-229; assay: Antiproliferative activity against human LN-229 cells assessed as reduction in inhibition of cell growth incubated for 72 hrs by MTT assay; format: functional, cell-based; conditions: LN-229, 72 h
[33] = system: T98G; assay: Antiproliferative activity against human T98G cells assessed as reduction in inhibition of cell growth incubated for 72 hrs by MTT assay; format: functional, cell-based
[34] = system: U-87 MG; assay: Antiproliferative activity against human U-87 MG cells assessed as reduction in cell viability incubated for 72 hrs by WST-8 reagent based assay; format: functional, U-87MG ATCC
[35] = system: T98G; assay: Antiproliferative activity against human T98G cells assessed as reduction in cell viability incubated for 72 hrs by WST-8 reagent based assay; format: functional
[36] = system: U-87 MG; assay: Antitumor activity against human U-87 MG cells xenografted in BALB/c nude mouse model assessed as reduction in tumor volume at 40 mg/kg, ip administered twice a day for 4 days relative to control; format: functional, U-87MG ATCC; set-up: scale not given: the % may be the effect or the level left; conditions: time 4 day
[37] = Inhibition of colony formation in human U-251MG cells assessed as reduction in number of cell clone measured after 14 days by crystal violet staining based microscopic analysis; format: functional; conditions: 336 h
[38] = system: T98G; assay: Inhibition of colony formation in human T98G cells assessed as reduction in number of cell clone measured after 14 days by crystal violet staining based microscopic analysis; format: functional; conditions: 336 h
[39] = system: T98G; assay: Anticancer activity against human T98G cells assessed as reduction in cell viability; format: functional, cell-based
[40] = system: SH-SY5Y; assay: Cytotoxicity against human SH-SY5Y cells measured for 48 hrs by SRB assay; format: functional, cell-based
[41] = Cytotoxicity against rat 9L/ACNU cells assessed as reduction in cell viability incubated for 24 hrs by tryphan-blue dye based assay; format: functional
[42] = system: 9L; assay: Cytotoxicity against rat 9L cells assessed as reduction in cell viability incubated for 24 hrs by tryphan-blue dye based assay; format: functional
[43] = system: ADR5000 cell line; assay: Cytotoxicity against human CEM/ADR5000 cells assessed as reduction in cell viability incubated for 72 hrs by resazurin dye based analysis; format: functional; conditions: ADR5000, 72 h
[44] = system: CCRF-CEM; assay: Cytotoxicity against human CCRF-CEM cells assessed as reduction in cell viability incubated for 72 hrs by resazurin dye based analysis; format: functional
[45] = Cytotoxicity against human U-87 MG cells harboring EGFR mutation assessed as reduction in cell viability incubated for 72 hrs by resazurin dye based assay; format: functional, U-87MG ATCC
[46] = Cytotoxicity against human GBM cells harboring EGFR mutation assessed as reduction in cell viability incubated for 72 hrs by resazurin dye based assay; format: functional
[47] = system: C6; assay: Antitumor activity against rat C6 cells implanted in Wistar rat assessed as increase in life span at 250 mg/kg relative to control; format: functional
[48] = Antitumor activity against rat C6/ACNUcells implanted in Wistar rat assessed as increase in life span at 250 mg/kg relative to control; format: functional, C6/ACNU

SMILES: COc1ccc2cc1Oc1ccc(cc1)C[C@H]1c3cc(c(OC)cc3CCN1C)Oc1c(OC)c(OC)cc3c1[C@H](C2)N(C)CC3 [FANCHININ]
CC50 [1]: 22.6 µM
CC50 [2]: 11.3 µM
CC50 [3]: 25.1 µM
CC50 [4]: 34.2 µM
IC50 [5]: 10.8 µg/mL (≈ 17.4 µM)
IC50 [6]: 56.1 µg/mL (≈ 90.1 µM)
IC50 [7]: 50 µg/mL (≈ 80.4 µM)

SMILES: O=C1c2ccccc2-[n+]2ccc3c([nH]c4ccccc43)c21 [FASCAPLYSIN]
Activity [8]: 54.92%

SMILES: O[C@H]1[C@H]2c3cc4c(cc3CN3CCC(=C[C@@H]1O)[C@H]23)OCO4 [LYCORINE]
IC50 [9]: 10 µM

SMILES: O=C1N[C@@H]2C(=C[C@H](O)[C@@H](O)[C@H]2O)c2cc3c(c(O)c21)OCO3 [NARCICLASINE]
EC50 [10]: 0.021 µg/mL (≈ 0.0683 µM)

IC50 [30]: 131 µM
SMILES: COc1ccc2c(c1OC)C(=O)O[C@@H]2[C@H]1c2c(cc3c(c2OC)OCO3)CCN1C [NOSCAPINE]
inhibition at 10 µg/mL [11]: 49%
IC50 [12]: 250 µM
Activity [13]: 60%
Activity [14]: 78%
Activity [15]: 60%
Activity [16]: 90%
Activity [17]: 30%
Activity [18]: 40%
Activity [19]: 40%
IC50 [20]: 20 µM
IC50 [21]: 60 µM
IC50 [22]: 70 µM
IC50 [23]: 75 µM
IC50 [24]: 40 µM
IC50 [25]: 30 µM
Time [26]: 18 days
Time [27]: 8 days
fold change (FC) [28]: 5.6
fold change (FC) [29]: 6.4
IC50 [31]: 91 µM
IC50 [32]: 86 µM
IC50 [33]: 97 µM

SMILES: COc1ccc(Cc2nccc3cc(OC)c(OC)cc23)cc1OC [PAPAVERINE]
EC50 [34]: 42 µM
EC50 [35]: 42 µM
Activity [36]: 63%
EC50 [37]: 11 µM
EC50 [38]: 4.5 µM
EC50 [39]: 3.1 µM

SMILES: OCc1ccc(-c2nccc3c2[nH]c2ccccc23)o1 [PERLOLYRIN]
IC50 [40]: 23.9 µM

SMILES: COC(=O)[C@H]1[C@H]2C[C@@H]3c4[nH]c5cc(OC)ccc5c4CCN3C[C@H]2C[C@@H](OC(=O)c2cc(OC)c(OC)c(OC)c2)[C@@H]1OC [RESERPINE]
IC50 [41]: 2 µM
IC50 [42]: 1 µM
IC50 [43]: 13.2 µM
IC50 [44]: 14.5 µM
IC50 [45]: 9.15 µM
IC50 [46]: 88 µM
Activity [47]: 143%
Activity [48]: 142%
